The values below are quoted from earlier work in patent publication US20250375417A1, “OREXIN RECEPTOR 2 (OX2R) AGONIST FOR USE IN NARCOLEPSY TYPE 1 (NT1)” (TAKEDA PHARMACEUTICAL COMPANY LIMITED, priority 2024, published 2025).

For the series the following is noted: phase 2 clinical studies of firazorexton; cited from earlier work.

In the case of `CC(C)(O)C(=O)N1CC[C@H](NS(C)(=O)=O)[C@@H]1Cc1cccc(-c2cc(F)cc(F)c2)c1F` [firazorexton], the Liver toxicity entry is “liver toxicity was observed”.
